Assay results from PubChem BioAssay (NCI).
Where “and” joins values, the source holds several entries; their conditions need not be identical. Identical values can stand only once.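 Where inhibition never reached the appropriate level, the endpoint shown equals the highest concentration tested. Otherwise, values were interpolated linearly from a five-concentration, 48-hour dose response in 96-well plates. GI50 = concentration required for 50% inhibition of growth. The concentration for full growth arrest is given as TGI.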

What was measured:
Experiment in all cases: DTP human tumour cell line panel, 48 h
[1] = tested on: A498 renal
[2] = tested on: A549 NSCLC
[3] = tested on: ACHN renal
[4] = tested on: HOP-62 NSCLC
[5] = tested on: HT29 colon
[6] = tested on: IGROV1 ovarian
[7] = tested on: KM12 colon
[8] = tested on: M14 melanoma
[9] = tested on: NCI-H226 lung
[10] = tested on: NCI-H23 lung
[11] = tested on: NCI-H522 lung
[12] = tested on: SK-MEL-5 melanoma
[13] = tested on: CCRF-CEM leukemia

| Structure (SMILES) | TGI [1] | TGI [2] | TGI [3] | TGI [4] | TGI [5] | TGI [6] | TGI [7] | TGI [8] | TGI [9] | TGI [10] | TGI [11] | TGI [12] | TGI [13] [µM] | GI50 [1] | GI50 [2] | GI50 [3] | GI50 [13] | GI50 [7] | GI50 [9] |
| --- | --- | --- | --- | --- | --- | --- | --- | --- | --- | --- | --- | --- | --- | --- | --- | --- | --- | --- | --- |
| O=C(COc1ccc(Cl)c(Cl)c1)Nc1ccc[n+](Cc2ccc(S(=O)(=O)F)c(Cl)c2)c1 | > 100 µM | > 100 µM | > 100 µM | > 100 µM | > 100 µM | > 100 µM | > 100 µM | > 100 µM | > 100 µM | > 100 µM | > 100 µM | > 100 µM |  |  |  |  |  |  |  |
| O=C(CSCC(=O)N/N=C/c1ccc2c(c1)OCO2)N/N=C/c1ccc2c(c1)OCO2 | > 100 µM | > 100 µM | > 100 µM | > 100 µM | > 100 µM | > 100 µM | > 100 µM | > 100 µM | > 100 µM | > 100 µM | > 100 µM | > 100 µM | > 100 |  |  |  |  |  |  |
| C[C@@H]1C[C@H]2[C@@H]3CCC4=CC(=O)C=C[C@]4(C)[C@@]3(F)[C@@H](O)C[C@]2(C)[C@@]1(O)C(=O)CO |  | > 100 µM | > 100 µM | > 100 µM | > 100 µM | > 100 µM | > 100 µM | > 100 µM | > 100 µM | > 100 µM | > 100 µM | > 100 µM | > 100 |  |  |  |  |  |  |
| C[C@H]1C[C@@H]2[C@H]([C@@H](O)C[C@@]3(C)[C@H]2CC[C@]3(O)C(=O)CO)[C@@]2(C)C=CC(=O)C=C12 | > 100 µM | > 100 µM | > 100 µM | > 100 µM | > 100 µM | > 100 µM | > 100 µM | > 100 µM | > 100 µM | > 100 µM | > 100 µM | > 100 µM | > 100 |  |  |  |  |  |  |
| COc1ccccc1/C=C/c1ccnc2ccccc12 | 29.5 µM | 31 µM | 32.8 µM | 29.6 µM | 25.4 µM | 19.9 µM | 25.3 µM | 29.7 µM | 29.5 µM | 27.9 µM |  | 26.4 µM | 34.8 |  |  |  |  |  |  |
| c1ccc2c(CSCc3cccc4ccccc34)cccc2c1 | > 100 µM | > 100 µM | > 100 µM | > 100 µM | > 100 µM | > 100 µM | > 100 µM | > 100 µM | > 100 µM | > 100 µM | > 100 µM | > 100 µM | > 100 |  |  |  |  |  |  |
| C[n+]1cccc(NC(=O)c2ccc(NC(=O)C34CCC(C(=O)Nc5ccc(C(=O)Nc6ccc[n+](C)c6)cc5)(CC3)CC4)cc2)c1 | > 100 µM | > 100 µM | > 100 µM | > 100 µM | > 100 µM | > 100 µM | 22.7 µM | > 100 µM | > 100 µM | > 100 µM | > 100 µM | > 100 µM | > 100 |  |  |  |  |  |  |
| COc1cc2c(c(OC)c1OC)-c1ccc(OC)c(=O)cc1C(NC(=O)COc1ccccc1)CC2 (stereo not drawn) | 2.46 µM | > 100 µM | > 100 µM | > 100 µM | < 0.146 µM | > 92.3 µM | < 0.011 µM | > 21.5 µM | 0.423 µM |  | < 0.01 µM | 0.0371 µM | > 63.4 |  |  |  |  |  |  |
| CNC(=O)OCc1nc(SC)n(C)c1CO | > 100 µM | > 100 µM |  | > 100 µM | > 100 µM | > 100 µM | > 100 µM |  | > 100 µM | > 100 µM | > 100 µM | > 100 µM | > 100 |  |  |  |  |  |  |
| CC(=O)Nc1ccc2c(c1)/C(=C\c1ccc([N+](C)(C)C)cc1)c1ccccc1-2 | > 100 µM | > 100 µM | > 100 µM | > 100 µM | > 100 µM | > 100 µM | > 100 µM | 33.8 µM | 74.4 µM | > 100 µM | > 100 µM | 61.8 µM | 50.9 |  |  |  |  |  |  |
| CN1C=c2c3c(ccc2=C2C=CC4C=C5OCOC5=CC4=C21)OCO3 (stereo not drawn) | 5.04 µM and 27.1 µM | 3.95 µM and 18.8 µM | 3.08 µM and 5.03 µM | 2.97 µM and 6.29 µM | 3.02 µM and 5.1 µM | 3.05 µM and 4.01 µM | 2.8 µM and 13.2 µM | 2.55 µM and 3.78 µM | 3.36 µM and 14.7 µM | 2.95 µM and 10.3 µM | 2.76 µM and 3.3 µM | 2.95 µM and 6.14 µM |  | 2.24 µM and 14.1 µM | 1.77 µM and 6.26 µM | 1.68 µM and 1.85 µM | 0.21 µM and 1.03 µM | 1.27 µM and 4.06 µM | 1.82 µM and 7.18 µM |
| COc1cc(C(=O)NC2CCc3cc(OC)c(OC)c(OC)c3-c3ccc(OC)c(=O)cc32)cc(OC)c1OC (stereo not drawn) | 8.44 µM | > 100 µM | > 100 µM | > 100 µM | 2.29 µM | 71.6 µM | 0.801 µM | 10.5 µM | 3.31 µM | 12.8 µM | 0.0544 µM | 0.377 µM | > 35 |  |  |  |  |  |  |
| CC(=O)Oc1ccccc1 | > 100 µM | > 100 µM | > 100 µM | > 100 µM | > 100 µM | > 100 µM | > 100 µM | > 100 µM | > 100 µM | > 100 µM | > 100 µM | > 100 µM | > 100 |  |  |  |  |  |  |
